Measured values: ChEMBL document CHEMBL5154671 (Eur J Med Chem, 2022)
Active and inactive are the calls of the source. The calls are words filed in the database; no cut-off is given here.

Experiments:
Mus musculus [1] = assay: Anti-NASH activity in high-fat/high-sugar diet and CCl4-induced nonalcoholic steatohepatitis male C57BL/6 mouse assessed as decrease in F4/80 expression at 100 mg/kg, po administered for 4 weeks; assay type: functional, organism-based
Mus musculus [2] = assay: Anti-NASH activity in high-fat/high-sugar diet and CCl4-induced nonalcoholic steatohepatitis male C57BL/6 mouse assessed as decrease in SCD1 mRNA expression at 100 mg/kg, po administered for 4 weeks; assay type: functional, organism-based
[3] = Acute toxicity in ICR mouse assessed as change in serum urea level at 500 mg/kg, IG; assay type: organism-based; conditions: in vivo, po
[4] = Acute toxicity in ICR mouse assessed as change in serum ALT level at 500 mg/kg, IG; assay type: organism-based; conditions: in vivo, po
Mus musculus [5] = assay: Anti-fibrotic activity in high-fat/high-sugar diet and CCl4-induced nonalcoholic steatohepatitis male C57BL/6 mouse assessed as decrease in TGF-beta mRNA expression at 100 mg/kg, po administered for 4 weeks; assay type: functional, organism-based
Mus musculus [6] = assay: Anti-NASH activity in high-fat/high-sugar diet and CCl4-induced nonalcoholic steatohepatitis male C57BL/6 mouse assessed as decrease in FAS mRNA expression at 100 mg/kg, po administered for 4 weeks; assay type: functional, organism-based
Mus musculus [7] = assay: Anti-NASH activity in high-fat/high-sugar diet and CCl4-induced nonalcoholic steatohepatitis male C57BL/6 mouse assessed as decrease in lobular inflammation score at 100 mg/kg, po administered for 4 weeks; assay type: functional, organism-based
Mus musculus [8] = assay: Antioxidant activity in high-fat/high-sugar diet and CCl4-induced nonalcoholic steatohepatitis male C57BL/6 mouse assessed as increase in SOD1 mRNA expression at 100 mg/kg, po administered for 4 weeks; assay type: functional, organism-based
Mus musculus [9] = assay: Antioxidant activity in high-fat/high-sugar diet and CCl4-induced nonalcoholic steatohepatitis male C57BL/6 mouse assessed as increase in catalase mRNA expression at 100 mg/kg, po administered for 4 weeks; assay type: functional, organism-based
[10] = target: T1, Peroxisome proliferator-activated receptor alpha (Homo sapiens, UniProt Q07869); assay: Agonist activity at human PPARalpha measured by dual luciferase reporter gene assay
T1 sequence (Q07869 whole entry): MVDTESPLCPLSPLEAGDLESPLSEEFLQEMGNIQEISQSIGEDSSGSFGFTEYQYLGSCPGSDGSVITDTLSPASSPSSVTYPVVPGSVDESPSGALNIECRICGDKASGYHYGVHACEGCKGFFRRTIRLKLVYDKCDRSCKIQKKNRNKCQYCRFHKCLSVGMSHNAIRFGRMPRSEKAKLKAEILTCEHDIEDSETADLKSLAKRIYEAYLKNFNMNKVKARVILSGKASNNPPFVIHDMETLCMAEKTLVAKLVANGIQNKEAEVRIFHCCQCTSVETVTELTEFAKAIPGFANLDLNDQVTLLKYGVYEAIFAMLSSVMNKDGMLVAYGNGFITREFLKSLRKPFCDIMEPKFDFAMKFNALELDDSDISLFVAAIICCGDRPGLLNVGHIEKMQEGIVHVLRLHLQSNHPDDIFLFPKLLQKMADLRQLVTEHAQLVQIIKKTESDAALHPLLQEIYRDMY

Mus musculus [11] = assay: Anti-NASH activity in high-fat/high-sugar diet and CCl4-induced nonalcoholic steatohepatitis male C57BL/6 mouse assessed as decrease in hepatic TC level at 100 mg/kg, po administered for 4 weeks; assay type: functional, organism-based
Mus musculus [12] = assay: Anti-NASH activity in high-fat/high-sugar diet and CCl4-induced nonalcoholic steatohepatitis male C57BL/6 mouse assessed as increase in HDL level at 100 mg/kg, po administered for 4 weeks; assay type: functional, organism-based
Mus musculus [13] = assay: Anti-NASH activity in high-fat/high-sugar diet and CCl4-induced nonalcoholic steatohepatitis male C57BL/6 mouse assessed as decrease in SREBP-1C mRNA expression at 100 mg/kg, po administered for 4 weeks; assay type: functional, organism-based
Mus musculus [14] = assay: Protection against CCl4-induced liver fibrosis in male C57BL/6 mouse assessed as decrease in hepatic hydroxyproline content at 100 mg/kg […]; assay type: functional, organism-based
Mus musculus [15] = assay: Antioxidant activity in high-fat/high-sugar diet and CCl4-induced nonalcoholic steatohepatitis male C57BL/6 mouse assessed as increase in GPX1 mRNA expression at 100 mg/kg, po administered for 4 weeks; assay type: functional, organism-based

SMILES: COc1ccc(/C=C/c2cc(OC)cc(OCc3ccc(OCC(=O)O)c(F)c3)c2)cc1
- Activity (Mus musculus [1]): Active
- Activity (Mus musculus [2]): Active
- Activity [3]: Non-Toxic
- Activity [4]: Non-Toxic
- Activity (Mus musculus [5]): Active
- Activity (Mus musculus [6]): Active
- Activity (Mus musculus [7]): Active
- Activity (Mus musculus [8]): Active
- Activity (Mus musculus [9]): Active
- EC50 [10]: 8.5 µM
- Activity (Mus musculus [11]): Active
- Activity (Mus musculus [12]): Active
- Activity (Mus musculus [13]): Active
- Activity (Mus musculus [14]): Active
- Activity (Mus musculus [15]): Active
